Data reported in publication PMC7587356, “High-Throughput Screening for Inhibitors of the SARS-CoV-2 Protease Using a FRET-Biosensor” (Molecules, 2020).
Where a name gives a salt, the structure may show the parent alone. Read-outs that look alike come from different tables or passages of the source.

Biological target: SARS-CoV-2 3CLpro (Severe acute respiratory syndrome coronavirus 2, UniProt P0DTD1)
Assay: biochemical
Type: biochemical
Set-up: Replicate_1 / Replicate_2 / mean / mean (LOPAC_screen_w_protease): unit not given here
Conditions: for inhibition at 5 µM: 4 h; for mean (LOPAC screen with protease) / Replicate_1 (LOPAC screen with protease) / Replicate_2 (LOPAC screen with protease): primary screen at 5 µM
[1] = LOPAC1280 primary screen with protease, 5 µM compound, mean of two replicates
[2] = LOPAC1280 primary screen with protease, 5 µM compound, replicate 1
[3] = LOPAC1280 primary screen with protease, 5 µM compound, replicate 2
[4] = LOPAC1280 primary screen with protease, 5 µM compound, mean of the two replicates
[5] = sheet LOPAC_screen_w_protease, LOPAC1280 at 5 µM, mean of two replicates
[6] = sheet LOPAC_screen_w_protease, LOPAC1280 at 5 µM, replicate 1
[7] = sheet LOPAC_screen_w_protease, LOPAC1280 at 5 µM, replicate 2
[8] = LOPAC1280 primary screen with protease, 5 µM compound, replicate 1, read-out: Replicate_1 (LOPAC_screen_w_protease)
[9] = LOPAC1280 primary screen with protease, 5 µM compound, replicate 2, read-out: Replicate_2 (LOPAC_screen_w_protease)
[10] = sheet LOPAC_screen_w_protease, primary screen of LOPAC1280 at 5 µM with protease, mean of the two replicates, read-out: mean
[11] = sheet LOPAC_screen_w_protease, primary screen of LOPAC1280 at 5 µM with protease, replicate 1, read-out: Replicate_1
[12] = sheet LOPAC_screen_w_protease, primary screen of LOPAC1280 at 5 µM with protease, replicate 2, read-out: Replicate_2
[13] = sheet LOPAC_screen_w_protease, LOPAC1280 primary screen with protease, 5 µM compound, mean of the two replicates, read-out: mean
[14] = sheet LOPAC_screen_w_protease, LOPAC1280 primary screen with protease, 5 µM compound, replicate 1, read-out: Replicate_1
[15] = sheet LOPAC_screen_w_protease, LOPAC1280 primary screen with protease, 5 µM compound, replicate 2, read-out: Replicate_2
[16] = sheet LOPAC_screen_w_protease, mean of two replicates
[17] = sheet LOPAC_screen_w_protease, replicate 1
[18] = sheet LOPAC_screen_w_protease, replicate 2
[19] = sheet LOPAC_screen_w_protease, LOPAC1280 primary screen at 5 µM, with protease, mean of the two replicates
[20] = sheet LOPAC_screen_w_protease, LOPAC1280 primary screen at 5 µM, with protease, replicate 1
[21] = sheet LOPAC_screen_w_protease, LOPAC1280 primary screen at 5 µM, with protease, replicate 2
[22] = sheet LOPAC_screen_w_protease, primary screen with protease, mean of two replicates
[23] = sheet LOPAC_screen_w_protease, primary screen with protease, replicate 1
[24] = sheet LOPAC_screen_w_protease, primary screen with protease, replicate 2

O=c1cc(-c2ccc(O)cc2)oc2cc(O)cc(O)c12 [Apigenin]
inhibition at 5 µM (read-out: Replicate_1): 0.663% | inhibition at 5 µM (read-out: Replicate_2): -0.402% | inhibition at 5 µM (read-out: mean): 0.131%

CCCCC/C=C\C[C@@H](O)/C=C/c1cccc(C[C@@H](O)CCCCO)n1 [U-75302]
mean (LOPAC_screen_w_protease) [1]: 1.3528 | Replicate_1 (LOPAC_screen_w_protease) [2]: 0.07831 | Replicate_2 (LOPAC_screen_w_protease) [3]: 2.627

CCNC(=O)[C@H]1O[C@@H](n2cnc3c(N)ncnc32)[C@H](O)[C@@H]1O [5'-N-Ethylcarboxamidoadenosine]
mean (LOPAC_screen_w_protease) [4]: 1.81 | Replicate_1 (LOPAC_screen_w_protease) [2]: 1.565 | Replicate_2 (LOPAC_screen_w_protease) [3]: 2.055

CC1(C)CCC=[N+]1[O-] [5,5-Dimethyl-1-pyrroline-N-oxide]
mean [5]: 1.097 | Replicate_1 [6]: 0.9422 | Replicate_2 [7]: 1.253

CC(C)C[C@H](NC(=O)[C@@H](O)[C@H](N)Cc1ccccc1)C(=O)O [Bestatin hydrochloride]
inhibition at 5 µM [8]: 1.1% | inhibition at 5 µM [9]: 3.15% | mean (LOPAC_screen_w_protease) [4]: 2.127

CC(=O)c1ccc(S(=O)(=O)NC(=O)NC2CCCCC2)cc1 [Acetohexamide]
inhibition at 5 µM [10]: 3.3% | inhibition at 5 µM [11]: 2.5% | inhibition at 5 µM [12]: 4.1%

C[C@@H]1C(=O)NC2=Nc3cccc(Cl)c3CN21 [Quazinone]
inhibition at 5 µM [13]: 4.1% | inhibition at 5 µM [14]: 4.2% | inhibition at 5 µM [15]: 4%

C[C@H](Cc1ccc2c(c1)OC(C(=O)[O-])(C(=O)[O-])O2)NC[C@H](O)c1cccc(Cl)c1.[Na+].[Na+] [CL 316,243]
Replicate_1 (LOPAC_screen_w_protease): 0.6829 | Replicate_2 (LOPAC_screen_w_protease): 2.815 | mean (LOPAC_screen_w_protease): 1.749

C[C@@H]1O[C@H](C[N+](C)(C)C)C[C@H]1O.[Cl-] (racemic) [(±)-Muscarine chloride]
mean (sheet LOPAC_screen_w_protease, LOPAC1280 primary screen with protease, 5 µM compound, mean of the two replicates): 5.0033 | Replicate_1 (sheet LOPAC_screen_w_protease, LOPAC1280 primary screen with protease, 5 µM compound, replicate 1): 6.646 | Replicate_2 (sheet LOPAC_screen_w_protease, LOPAC1280 primary screen with protease, 5 µM compound, replicate 2): 3.361

CCCc1c(OCCCOc2ccc(OCC(=O)O)cc2)ccc(C(C)=O)c1O [L-165,041]
mean (LOPAC screen with protease) [16]: 13.6599 | Replicate_1 (LOPAC screen with protease) [17]: 14.4944 | Replicate_2 (LOPAC screen with protease) [18]: 12.8255

Brc1c(NC2=NCCN2)ccc2nccnc12 [UK 14,304]
Replicate_1 (LOPAC_screen_w_protease): 1.98 | Replicate_2 (LOPAC_screen_w_protease): 2.1604 | mean (LOPAC_screen_w_protease): 2.07

O=C(Nc1ccccc1)c1cc([N+](=O)[O-])ccc1Cl [GW9662]
mean (LOPAC_screen_w_protease) [1]: 1.573 | Replicate_1 (LOPAC_screen_w_protease) [2]: 2.013 | Replicate_2 (LOPAC_screen_w_protease) [3]: 1.1319

CCCN(CCC)C(=O)Cc1c(-c2ccc(Cl)cc2)nc2c(Cl)cc(Cl)cn12 [CB34]
Replicate_1: 2.062 | Replicate_2: 2.367 | mean: 2.2145

OC[C@H]1O[C@@H](n2cnc3c(NC4CCCC4)ncnc32)[C@H](O)[C@@H]1O [N6-Cyclopentyladenosine]
inhibition at 5 µM (sheet LOPAC_screen_w_protease, primary screen with protease, mean of two replicates, read-out: mean): 2.13% | inhibition at 5 µM (sheet LOPAC_screen_w_protease, primary screen with protease, replicate 1, read-out: Replicate_1): 1.59% | inhibition at 5 µM (sheet LOPAC_screen_w_protease, primary screen with protease, replicate 2, read-out: Replicate_2): 2.67%

NC(=O)CI [Iodoacetamide]
mean (LOPAC screen with protease) [16]: 17.6073 | Replicate_1 (LOPAC screen with protease) [17]: 16.5057 | Replicate_2 (LOPAC screen with protease) [18]: 18.7088

NCCCNCCCCNCCCN [Spermine tetrahydrochloride]
inhibition at 5 µM (read-out: Replicate_1): 3.94% | inhibition at 5 µM (read-out: Replicate_2): 4.24% | inhibition at 5 µM (read-out: mean): 4.09%

Cl.O=C(O)C1CCCN(CCC=C(c2ccccc2)c2ccccc2)C1 (stereo not shown) [SKF 89976A hydrochloride]
mean [19]: 0.532 | Replicate_1 [20]: 1.548 | Replicate_2 [21]: -0.4841

COc1ccccc1N1CCN(CCN(C(=O)C2CCCCC2)c2ccccn2)CC1.O=C(O)/C=C\C(=O)O [WAY-100635 maleate]
mean [5]: 1.0596 | Replicate_1 [6]: 1.502 | Replicate_2 [7]: 0.6169

CC1=C(/C=C/C(C)=C/C=C/C(C)=C/C=C/C=C(C)/C=C/C=C(C)/C=C/C2=C(C)C(=O)[C@@H](O)CC2(C)C)C(C)(C)C[C@H](O)C1=O [Astaxanthin]
inhibition at 5 µM [10]: 3.4% | inhibition at 5 µM [11]: 2.58% | inhibition at 5 µM [12]: 4.22%

CN1[C@@H]2CC[C@H]1C[C@@H](OC(c1ccccc1)c1ccccc1N)C2 (stereo partly shown) [Aminobenztropine]
inhibition at 5 µM (sheet LOPAC_screen_w_protease, primary screen with protease, compound at 5 µM, mean of two replicates, read-out: mean): 3.04% | inhibition at 5 µM (sheet LOPAC_screen_w_protease, primary screen with protease, compound at 5 µM, replicate 1, read-out: Replicate_1): 2.54% | inhibition at 5 µM (sheet LOPAC_screen_w_protease, primary screen with protease, compound at 5 µM, replicate 2, read-out: Replicate_2): 3.53%

O=C(O)CCC/C=C\C[C@@H]1[C@@H](/C=C/[C@H](O)C2Cc3ccccc3C2)[C@@H](F)C[C@@H]1O [AL-8810]
Replicate_1: 0.247 | Replicate_2: 1.148 | mean: 0.6974

R(-)-SCH-12679 maleate
mean [19]: 0.5011 | Replicate_1 [20]: 0.9263 | Replicate_2 [21]: 0.07597

CC(C)C[C@H]1C(=O)N2CCC[C@H]2[C@]2(O)O[C@](NC(=O)[C@@H]3C=C4c5cccc6[nH]c(Br)c(c56)C[C@H]4N(C)C3)(C(C)C)C(=O)N12.CS(=O)(=O)O [(+)-Bromocriptine methanesulfonate]
mean (LOPAC_screen_w_protease) [4]: 1.984 | Replicate_1 (LOPAC_screen_w_protease) [2]: 2.405 | Replicate_2 (LOPAC_screen_w_protease) [3]: 1.562

C[Se]C[C@H](N)C(=O)O.Cl [Se-(methyl)selenocysteine hydrochloride]
mean (LOPAC screen with protease) [16]: 12.3582 | Replicate_1 (LOPAC screen with protease) [17]: 13.6627 | Replicate_2 (LOPAC screen with protease) [18]: 11.0537

Cl.NC(N)=NCCNS(=O)(=O)c1cccc2cnccc12 [HA-1004 hydrochloride]
mean (LOPAC_screen_w_protease) [1]: 1.6 | Replicate_1 (LOPAC_screen_w_protease) [2]: 0.9796 | Replicate_2 (LOPAC_screen_w_protease) [3]: 2.221

S=C=Nc1cccc(C2(N3CCCCC3)CCCCC2)c1 [Metaphit methanesulfonate]
inhibition at 5 µM [13]: 5.96% | inhibition at 5 µM [14]: 6.38% | inhibition at 5 µM [15]: 5.54%

CNC1(C)C2CCC(C2)C1(C)C (stereo not shown) [Mecamylamine hydrochloride]
inhibition at 5 µM [13]: 4.7% | inhibition at 5 µM [14]: 5.3% | inhibition at 5 µM [15]: 4.09%

N=C(NCCC[C@H](N)C(=O)O)N[N+](=O)[O-] [NG-Nitro-L-arginine]
inhibition at 5 µM [10]: 3.68% | inhibition at 5 µM [11]: 2.33% | inhibition at 5 µM [12]: 5.04%

CSc1nc(N)c2ncn([C@@H]3O[C@H](COP(=O)([O-])OP(=O)([O-])OP(=O)([O-])[O-])[C@@H](O)[C@H]3O)c2n1.[Na+].[Na+].[Na+].[Na+]
mean [22]: 2.299 | Replicate_1 [23]: 2.88 | Replicate_2 [24]: 1.718

NCCS(=O)O [Hypotaurine]
inhibition at 5 µM [8]: 4.13% | inhibition at 5 µM [9]: -0.407% | mean (LOPAC_screen_w_protease) [4]: 1.861

Br.NCc1cc(O)no1 [Muscimol hydrobromide]
mean (sheet LOPAC_screen_w_protease, primary screen with protease, 5 µM, mean of two replicates): 0.06352 | Replicate_1 (sheet LOPAC_screen_w_protease, primary screen with protease, 5 µM, replicate 1): 2.752 | Replicate_2 (sheet LOPAC_screen_w_protease, primary screen with protease, 5 µM, replicate 2): -2.625

COC(=O)[C@H](NC(=O)c1cc(-c2ccccc2)nc2ccccc12)c1ccccc1 [SB 218795]
mean [19]: 0.7338 | Replicate_1 [20]: 2.781 | Replicate_2 [21]: -1.313

CN1CCC(c2c[nH]c3ccc(O)cc23)CC1.O=C(O)/C=C\C(=O)O [BRL 54443 maleate]
mean [22]: 2.426 | Replicate_1 [23]: 0.4828 | Replicate_2 [24]: 4.37

O=C1NC(=O)C(c2ccccc2)(c2ccccc2)N1 [Phenytoin sodium]
inhibition at 5 µM [8]: 1.2% | inhibition at 5 µM [9]: 2.6% | mean (LOPAC_screen_w_protease) [4]: 1.899

Nc1ncnc2c1nc(Sc1ccc(Cl)cc1)n2C1OC2COP(=O)(O)OC2C1O (stereo in doubt) [8-(4-Chlorophenylthio)-cAMP sodium]
mean [19]: 0.5451 | Replicate_1 [20]: 0.8706 | Replicate_2 [21]: 0.2195

Cl.N[C@@H](CCl)C(=O)O [beta-Chloro-L-alanine hydrochloride]
mean [22]: 2.368 | Replicate_1 [23]: 2.376 | Replicate_2 [24]: 2.361

O=C1c2c(O)cc(O)cc2O[C@H](c2ccc(O)c(O)c2)[C@H]1O [dihydroquercetin, reference compound]
inhibition of 3CLpro in the primary screen (5 µM compound, 0.01% Triton X-100, 4 h endpoint, duplicate mean): 7.5%
